The text below walks through data of patent US12178825B2, “Method and compositions for forming a copper-containing complex and uses thereof” (COLD SPRING HARBOR LABORATORY, priority 2017, dated 2024).

One test concerns JAK2. The experiment in a line: Leptin signaling in hypothalamus of treated mice. Format: in vivo. The note with it: leptin-induced. The procedure:
(§1) Technology (JAK2, catalog 3230, clone D2E12; p-T308 AKT (catalog 13038, clone D25E6); AKT (catalog 4691, clone C67E7) and Sigma-Aldrich (actin, catalog A2228, clone AC-74).
(§2) All protocols were approved by the Institutional Animal Use and Care Committee of Cold Spring Harbor laboratory. 10 week-old male mice fed chow diet or high-fat diet (D12492) were acclimatized for 10 days under standard conditions before experiments. Mice were injected intraperitoneally (i.p.) once daily with vehicle, 5 mg/kg of DPM-1001 intraperitoneally or orally for 50 days. Mice were euthanized after 6 h of fasting, and serum samples were collected to measure the metabolic parameters and tissue samples were collected for studying changes in signaling.

The next test concerns TNBC cells. The test can be described thus: Immunoblot of copper-induced signaling. Format: cell-based. The following applies: co-administration. The text has this: (§3) Equal quantities of lysates were isolated from indicated cell lines and then resolved by SDS-PAGE and immunoblotted with one of the following primary antibodies: mouse anti-MEK1/2, rabbit anti-p-PAK1, rabbit anti-PAK1, rabbit anti-ERK1/2, rabbit anti-phospho(Ser 217/221)-MEK1/2, rabbit anti-phospho(Thr 202/Tyr 204)-ERK1/2, rabbit anti-phospho (Ser 338)-c-RAF, rabbit anti-RAF, rabbit anti-phospho (Ser 112)-BAD and rabbit anti-BAD (Cell Signaling Technology), mouse anti-β-actin (Sigma), followed by detection with one of the following horseradish peroxidase-conjugated secondary antibodies: goat anti-rabbit IgG, goat anti-mouse IgG (Invitrogen), mouse anti-rabbit light-chain-specific IgG (Jackson ImmunoResearch Laboratories) using enhanced chemiluminescence (ECL; GE Healthcare) or SuperSignal West Femto Chemiluminescent substrate (Pierce) detection reagents.
In general terms: In western blotting, separated proteins are transferred to a membrane and probed.

Test [1] relates to fibroblasts derived from Wilson's disease patients. The test can be described thus: Copper-induced toxicity in Wilson's disease patient-derived fibroblasts. It is filed as cell-based. Here is the method:
HepG2 cells purchased from ATCC were cultured in RPMI media containing 10% FBS, 5% CO2 at 37 C. Control (AG09319) and Wilson's disease patient-derived fibroblasts (GM00032, GM00033, GM05257, GM12158, GM05798 and GM11778) were obtained from Coriell Biorepository and cultured in DMEM, 10% FBS, 5% CO2 at 37° C.
For cell survival assays, 10,000 cells were seeded in a 96 well plate and cultured until fully confluent (90%). To these cells, ATP7B siRNAs or scrambled siRNA (negative control) purchased from Qiagen and Santa Cruz Biotechnology were transfected. Lipofectamine RNAiMAX reagent (Thermofischer) and siRNAs were diluted into a final volume of 100 μl in Opti-MEM (Gibco). The mixture was incubated at room temperature for 30 min, following which 800 μl of Opti-MEM was added to the mixture. The above transfection solution was overlaid onto cells at a final concentration of 5 nM siRNA. Transfection of HepG2 cells with scrambled siRNA served as negative control. Twelve hours after the transfection, complete media was added to each well. Following which, knockdown efficiency was checked (24 hours later) and cells were exposed to varying concentration of copper (0-1 mM) for 12 h and cell viability was determined using the MTT assay as previously described (37). […]

In test [2] the test system is insulin receptor β subunit, AKT. The test can be described thus: Insulin signaling in liver of treated mice. Format: in vivo.
From the text: The antibodies used in the study were purchased from: Upstate Biotechnology (pTyr, catalog 05-321, clone 4G10); Invitrogen (pY1162/1163-IR-β, catalog 700393, clone 97H9L7); Santa Cruz Biotechnology Inc. (IR-β, catalog sc-711, clone C711); Cell Signaling
as §1, §2

A further test has as its system MDA-MB-231 and SUM159. The experiment in a line: Immunoblot of phospho-Erk. Format: cell-based. The following applies: DPM-1001 1-2 μM.
From the text: as §3

For another test, the system named is metallothionein. The test can be described thus: Metallothionein quantitation in liver and brain. It is filed as in vivo, mouse. The following applies: TX mice. Here is the method:
Tissue samples (100 mg liver or 25 mg brain) were rinsed in PBS to remove excess blood and homogenized using a dounce homogenizer on ice (PBS, 1% tween). The samples were centrifuged at 5000×g for 5 minutes and the supernatant was collected. Total protein in the supernatant was measured using Bradford reagent and an equal amount of each sample (based on protein concentration) was used to measure metallothionein levels. Mouse metallothionein Elisa kit was purchased from Lifespan Biosciences, Inc and the assay was performed according to the users manual.

The next test has as its target PTP1B-L192A/S372P (Homo sapiens, UniProt P18031, L192A/S372P). The experiment in a line: Phosphatase assay with MSI-1436-resistant mutant. It is filed as biochemical. The following applies: read-out: IC50 against PTP1B-L192A/S372P. The text has this: All common reagents were obtained from Thermo Fisher Scientific (Waltham, MA) or Sigma-Aldrich (St. Louis, MO). Difluoro-4-methylumbelliferyl phosphate (DiFMUP) was obtained from Invitrogen (cat #D22065). Solid black 384-well plates (cat #3573) for phosphatase assays were from Corning Incorporated (Corning, NY).

The next test has as its system TX mice. The experiment in a line: Tissue and fecal copper levels (ICP-MS, rhodanine staining). Format: in vivo, mouse. The procedure:
C3He-Atp7b^tx-j were obtained from the Jackson laboratory. All animal experiments were performed according to protocols approved by the Institutional Animal Use and Care Committee of Cold Spring Harbor laboratory. Mice were injected intraperitoneally (i.p.) with vehicle, or administered DPM-1001 intraperitoneally or orally at 5 mg/kg once every third day, for over a year. At the end of the study animals were euthanized and tissue samples were removed for biochemical studies.
Tissue samples from wild-type or TX mice treated with saline, DPM-1001 or tetrathiomolybdate was washed three times with PBS containing 1 mM EDTA (to remove nonspecifically bound copper). Then, 215 μl of concentrated nitric acid (BDH Aristar Ultra) was added to each sample and incubated overnight. Samples were boiled at 95° C. for 1 h. and approximately 150 μl of each sample was further diluted in 2 ml 2% nitric acid (made freshly from concentrated nitric acid and Milli-Q water) Samples were analyzed on a Thermo Fisher iCAP Qc ICP mass spectrometer in kinetic energy discrimination (KED) mode against a calibration curve of known copper and phosphorus concentrations, with Ga (20 μg/l, Inorganic Ventures) as an internal standard, Each experiment was carried out twice and each condition was repeated in at least triplicate.
Liver tissues from wild-type and TX mice from untreated and DPM-1001-treated mice were sectioned and stained with H&E or rhodanine. Whole-slide, digitized images of H&E-stained tissue were captured using the Aperio ScanScope XT automated scanning system (Vista, CA). Image J software was used to quantitate rhodanine staining.

The structures appear in SMILES notation. “Also recorded” adds a separate entry of the source.

Chain of PTP1B-L192A/S372P (P18031 whole entry L192A/S372P): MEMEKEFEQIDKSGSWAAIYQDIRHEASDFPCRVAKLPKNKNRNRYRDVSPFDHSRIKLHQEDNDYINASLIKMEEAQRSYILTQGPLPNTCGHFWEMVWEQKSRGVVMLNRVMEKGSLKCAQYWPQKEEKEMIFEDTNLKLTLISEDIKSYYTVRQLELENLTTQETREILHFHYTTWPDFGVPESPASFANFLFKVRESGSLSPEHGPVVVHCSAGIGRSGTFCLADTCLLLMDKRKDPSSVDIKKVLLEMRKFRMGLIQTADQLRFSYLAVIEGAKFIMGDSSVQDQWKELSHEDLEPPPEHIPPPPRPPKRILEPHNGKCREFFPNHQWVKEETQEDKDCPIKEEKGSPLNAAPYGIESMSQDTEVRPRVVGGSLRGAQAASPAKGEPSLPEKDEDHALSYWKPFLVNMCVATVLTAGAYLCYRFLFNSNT

For the molecule `COC(=O)CCC(C)C1CCC2C3C(O)CC4CC(NCCCCNCc5ccccn5)CCC4(C)C3CCC12C` (stereo not drawn) [DPM-1001], the “phosphorylation of JAK2” value with JAK2 was “increased leptin-induced JAK2 phosphorylation; also recorded: enhanced phosphorylation of JAK2”. For the same molecule, the “copper-induced increase of pS338-RAF1 and pS112-BAD” value in the test with TNBC cells (5-10 μM copper in culture media) was “reduced or blocked”. Besides, in the test on TNBC cells (copper added to culture media), the “copper-induced increase of phospho-PAK1” value is given as “blocked”. The “protection from copper-induced cell death” value in test [1] was “prevents such cytotoxic effects; also recorded: inhibited copper-induced cell death”. Further, the AKT phosphorylation result in test [2] is given as “phosphorylation of AKT; also recorded: enhanced AKT phosphorylation”. In addition, the “tyrosine phosphorylation of insulin receptor β subunit” value in test [2] (insulin-stimulated, orally or intraperitoneally) is listed as “increased insulin-stimulated insulin receptor phosphorylation; also recorded: marked increase in β-subunit phosphorylation”. For the same molecule, in the test with MDA-MB-231 and SUM159, the “levels of phospho-Erk” value was “high levels of reduction; also recorded: greater than that seen with 50 μM of bathocuproine disulfonate or 25 μM of TTM”. The metallothionein levels result in the test on metallothionein is “prevents elevated metallothionein expression in liver; also recorded: lowered metallothionein levels in the liver and the brain”. For the same molecule, on PTP1B-L192A/S372P, the IC50 came out at 1000 nM. The “copper levels in feces” value is on record as “dramatically elevated” with TX mice (TX mice) and “elevated copper levels in feces” in the test with TX mice (TX mice, listed as DMP-1001). Further, the “rhodanine staining of liver” value in the test with TX mice (TX mice) was “no obvious staining for rhodanine”; with TX mice (wild-type mice), “No signal was detected”. For the same molecule, in the test on TX mice (TX mice, ICP-MS), the “copper levels in liver and brain” value was “inhibits copper accumulation in liver and brain; also recorded: lowered the levels of copper in both tissues; also recorded: as effective as tetrathiomolybdate in removing copper from the liver and brain”. Besides, in the test on TX mice (wild-type and TX mice, ICP-MS), the “copper levels in kidney” value was “does not promote accumulation of copper in the kidney; also recorded: no significant differences”.
